Source: patent US10231954B2, “Neurodegenerative therapies” (LYTIX BIOPHARMA AS, priority 2014, dated 2019)

Tests used:
Format in all cases: biochemical
TrkA = TrkA (Homo sapiens, UniProt P04629); assay: Kinase profiling TrkA
Text: (§1) Any value less that 25 is considered to be highly significant inhibition.

TAK1 = target: T1, TAK1 (Homo sapiens, UniProt O43318); assay: Kinase profiling TAK1
T1 sequence (O43318 1-303 limits assumed): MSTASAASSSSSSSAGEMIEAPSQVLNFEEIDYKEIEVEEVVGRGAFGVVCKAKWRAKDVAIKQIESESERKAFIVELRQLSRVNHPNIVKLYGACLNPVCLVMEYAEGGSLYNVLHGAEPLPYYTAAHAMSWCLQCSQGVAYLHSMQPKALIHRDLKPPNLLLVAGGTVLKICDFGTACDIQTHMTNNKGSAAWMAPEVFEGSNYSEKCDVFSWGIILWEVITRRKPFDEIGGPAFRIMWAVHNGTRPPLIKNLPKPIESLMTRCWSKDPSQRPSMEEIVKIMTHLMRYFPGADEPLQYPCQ
T1 sequence (Q15750 437-504 partner limits assumed): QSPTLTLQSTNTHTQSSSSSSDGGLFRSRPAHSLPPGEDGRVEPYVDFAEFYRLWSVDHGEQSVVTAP
Text: as §1

MLK3 = MLK3 (Homo sapiens, UniProt Q16584); assay: Kinase profiling MLK3
Text: as §1

ROCK 2 = ROCK 2 (Homo sapiens, UniProt O75116); assay: Kinase profiling ROCK 2
Text: as §1

SRPK1 = SRPK1 (Homo sapiens, UniProt Q96SB4); assay: Kinase profiling SRPK1
Text: as §1

S6K1 = S6K1 (Homo sapiens, UniProt P23443); assay: Kinase profiling S6K1
Text: as §1

MSK1 = MSK1 (Homo sapiens, UniProt O75582); assay: Kinase profiling MSK1
Text: as §1

PRK2 = PRK2 (Homo sapiens, UniProt Q16513); assay: Kinase profiling PRK2
Text: as §1

HER4 = HER4 (Homo sapiens, UniProt Q15303); assay: Kinase profiling HER4
Text: as §1

LKB1 = target: T2, LKB1 (Homo sapiens, UniProt Q15831); assay: Kinase profiling LKB1
T2 sequence (Q15831 1-433): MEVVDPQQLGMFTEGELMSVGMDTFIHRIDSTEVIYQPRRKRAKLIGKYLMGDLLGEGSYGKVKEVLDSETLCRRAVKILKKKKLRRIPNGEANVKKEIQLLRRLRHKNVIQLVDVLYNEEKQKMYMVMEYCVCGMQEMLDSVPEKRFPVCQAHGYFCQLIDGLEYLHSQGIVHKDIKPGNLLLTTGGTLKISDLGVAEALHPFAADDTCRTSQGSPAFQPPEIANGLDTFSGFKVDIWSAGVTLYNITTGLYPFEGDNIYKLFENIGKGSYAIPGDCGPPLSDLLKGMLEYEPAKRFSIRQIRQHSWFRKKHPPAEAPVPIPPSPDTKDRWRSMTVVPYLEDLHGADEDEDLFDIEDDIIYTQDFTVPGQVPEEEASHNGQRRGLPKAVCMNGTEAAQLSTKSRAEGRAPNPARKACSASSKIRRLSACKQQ
T2 sequence (Q7RTN6 1-431 partner): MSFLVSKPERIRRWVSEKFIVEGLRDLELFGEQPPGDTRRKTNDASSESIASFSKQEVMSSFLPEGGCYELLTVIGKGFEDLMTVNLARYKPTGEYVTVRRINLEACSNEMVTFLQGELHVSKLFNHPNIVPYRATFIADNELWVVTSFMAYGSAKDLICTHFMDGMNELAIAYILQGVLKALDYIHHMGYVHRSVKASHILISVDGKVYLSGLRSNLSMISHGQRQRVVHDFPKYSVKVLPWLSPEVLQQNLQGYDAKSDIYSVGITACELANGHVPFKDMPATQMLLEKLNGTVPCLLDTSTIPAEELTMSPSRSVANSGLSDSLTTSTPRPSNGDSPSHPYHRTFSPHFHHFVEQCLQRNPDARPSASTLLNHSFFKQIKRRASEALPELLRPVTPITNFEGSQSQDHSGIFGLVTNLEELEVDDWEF
T2 sequence (Q9Y376 1-341 partner): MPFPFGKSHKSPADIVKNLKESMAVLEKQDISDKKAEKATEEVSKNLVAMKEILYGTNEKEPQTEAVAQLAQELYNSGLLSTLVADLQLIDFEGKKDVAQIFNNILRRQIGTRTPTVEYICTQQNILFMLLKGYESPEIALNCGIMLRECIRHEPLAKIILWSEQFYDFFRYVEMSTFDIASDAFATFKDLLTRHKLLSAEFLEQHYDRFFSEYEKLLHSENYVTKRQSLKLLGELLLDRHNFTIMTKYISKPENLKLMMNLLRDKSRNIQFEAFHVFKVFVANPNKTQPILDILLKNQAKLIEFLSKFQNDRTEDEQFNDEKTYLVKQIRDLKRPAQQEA
Text: as §1

NEK6 = NEK6 (Homo sapiens, UniProt Q9HC98); assay: Kinase profiling NEK6
Text: as §1

[1] = 100 micromolar inhibitor concentration, 100 is no change
[2] = 100 micromolar inhibitor, 100 = no change

Chain of NEK6 (Q9HC98 whole entry, species assumed): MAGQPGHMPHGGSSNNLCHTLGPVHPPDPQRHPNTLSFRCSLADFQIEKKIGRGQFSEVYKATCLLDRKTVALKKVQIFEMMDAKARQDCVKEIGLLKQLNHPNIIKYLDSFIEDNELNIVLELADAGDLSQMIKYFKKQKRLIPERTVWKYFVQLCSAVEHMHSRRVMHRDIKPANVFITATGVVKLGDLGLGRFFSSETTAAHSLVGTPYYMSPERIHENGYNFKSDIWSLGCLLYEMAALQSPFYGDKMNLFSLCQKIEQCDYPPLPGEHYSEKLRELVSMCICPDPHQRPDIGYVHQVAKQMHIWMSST
Chain of MLK3 (Q16584 whole entry, species assumed): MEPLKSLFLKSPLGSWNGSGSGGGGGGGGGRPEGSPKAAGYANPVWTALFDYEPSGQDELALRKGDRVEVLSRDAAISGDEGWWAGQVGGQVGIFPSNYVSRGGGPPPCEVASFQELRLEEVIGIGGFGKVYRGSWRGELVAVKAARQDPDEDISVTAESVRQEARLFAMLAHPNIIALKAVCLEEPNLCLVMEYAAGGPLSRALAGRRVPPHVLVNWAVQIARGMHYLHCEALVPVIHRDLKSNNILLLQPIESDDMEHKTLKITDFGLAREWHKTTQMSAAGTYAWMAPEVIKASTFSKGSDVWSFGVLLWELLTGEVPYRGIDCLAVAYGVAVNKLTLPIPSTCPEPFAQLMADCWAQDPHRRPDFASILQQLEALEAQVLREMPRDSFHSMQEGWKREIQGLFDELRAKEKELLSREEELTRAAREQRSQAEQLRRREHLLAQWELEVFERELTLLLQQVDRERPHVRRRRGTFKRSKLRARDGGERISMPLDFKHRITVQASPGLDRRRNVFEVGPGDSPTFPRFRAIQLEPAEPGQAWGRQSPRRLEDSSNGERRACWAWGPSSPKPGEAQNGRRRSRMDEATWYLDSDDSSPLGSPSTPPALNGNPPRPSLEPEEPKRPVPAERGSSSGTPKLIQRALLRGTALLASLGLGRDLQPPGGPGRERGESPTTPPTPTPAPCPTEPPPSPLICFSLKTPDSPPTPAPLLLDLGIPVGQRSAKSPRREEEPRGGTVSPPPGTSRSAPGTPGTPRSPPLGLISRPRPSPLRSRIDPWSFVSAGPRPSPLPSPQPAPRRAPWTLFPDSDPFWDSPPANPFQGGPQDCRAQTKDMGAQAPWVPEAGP
Chain of PRK2 (Q16513 whole entry, species assumed): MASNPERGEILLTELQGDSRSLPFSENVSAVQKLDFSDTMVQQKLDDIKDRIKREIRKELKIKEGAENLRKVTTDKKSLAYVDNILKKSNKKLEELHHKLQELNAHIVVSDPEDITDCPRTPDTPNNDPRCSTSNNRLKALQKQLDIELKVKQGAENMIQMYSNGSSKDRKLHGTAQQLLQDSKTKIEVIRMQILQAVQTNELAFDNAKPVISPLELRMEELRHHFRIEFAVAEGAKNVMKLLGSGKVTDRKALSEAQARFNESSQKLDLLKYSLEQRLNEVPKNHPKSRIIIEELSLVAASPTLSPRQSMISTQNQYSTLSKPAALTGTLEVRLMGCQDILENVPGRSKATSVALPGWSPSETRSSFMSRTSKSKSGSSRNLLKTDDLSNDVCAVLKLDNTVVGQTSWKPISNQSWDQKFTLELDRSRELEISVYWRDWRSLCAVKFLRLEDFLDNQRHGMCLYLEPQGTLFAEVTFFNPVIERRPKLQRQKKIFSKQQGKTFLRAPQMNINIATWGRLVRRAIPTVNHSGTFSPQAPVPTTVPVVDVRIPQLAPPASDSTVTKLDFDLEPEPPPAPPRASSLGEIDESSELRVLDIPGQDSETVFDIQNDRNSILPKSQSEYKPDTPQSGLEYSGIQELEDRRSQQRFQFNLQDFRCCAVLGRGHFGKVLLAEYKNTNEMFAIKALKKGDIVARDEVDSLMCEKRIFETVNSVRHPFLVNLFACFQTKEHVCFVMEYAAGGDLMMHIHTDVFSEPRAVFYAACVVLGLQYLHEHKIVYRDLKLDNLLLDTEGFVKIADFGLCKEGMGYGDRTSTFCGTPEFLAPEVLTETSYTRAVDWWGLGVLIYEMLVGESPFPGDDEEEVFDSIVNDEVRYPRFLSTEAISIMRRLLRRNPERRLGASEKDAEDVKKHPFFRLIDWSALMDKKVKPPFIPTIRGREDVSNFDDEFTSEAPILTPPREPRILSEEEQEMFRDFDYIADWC
Chain of TrkA (P04629 33-796, species assumed): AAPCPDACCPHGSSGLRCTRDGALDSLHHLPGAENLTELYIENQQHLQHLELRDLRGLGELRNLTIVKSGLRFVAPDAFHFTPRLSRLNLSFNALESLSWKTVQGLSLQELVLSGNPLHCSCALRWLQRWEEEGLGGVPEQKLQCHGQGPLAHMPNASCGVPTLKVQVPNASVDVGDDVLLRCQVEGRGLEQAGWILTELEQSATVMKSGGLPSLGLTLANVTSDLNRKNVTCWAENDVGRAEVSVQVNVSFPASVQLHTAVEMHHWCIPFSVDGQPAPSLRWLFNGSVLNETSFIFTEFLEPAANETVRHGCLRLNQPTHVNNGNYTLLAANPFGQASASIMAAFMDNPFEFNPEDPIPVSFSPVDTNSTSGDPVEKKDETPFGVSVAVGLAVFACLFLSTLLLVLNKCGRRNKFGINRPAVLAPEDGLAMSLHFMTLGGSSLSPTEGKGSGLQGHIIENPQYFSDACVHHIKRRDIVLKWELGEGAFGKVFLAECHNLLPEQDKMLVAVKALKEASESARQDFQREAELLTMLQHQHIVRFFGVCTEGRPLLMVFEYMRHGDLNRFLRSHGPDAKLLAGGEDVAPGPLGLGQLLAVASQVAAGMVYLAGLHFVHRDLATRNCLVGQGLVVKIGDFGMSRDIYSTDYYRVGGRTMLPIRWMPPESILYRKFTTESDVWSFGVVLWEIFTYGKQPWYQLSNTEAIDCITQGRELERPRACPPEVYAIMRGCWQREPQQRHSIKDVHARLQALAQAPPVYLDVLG
Chain of MSK1 (O75582 whole entry, species assumed): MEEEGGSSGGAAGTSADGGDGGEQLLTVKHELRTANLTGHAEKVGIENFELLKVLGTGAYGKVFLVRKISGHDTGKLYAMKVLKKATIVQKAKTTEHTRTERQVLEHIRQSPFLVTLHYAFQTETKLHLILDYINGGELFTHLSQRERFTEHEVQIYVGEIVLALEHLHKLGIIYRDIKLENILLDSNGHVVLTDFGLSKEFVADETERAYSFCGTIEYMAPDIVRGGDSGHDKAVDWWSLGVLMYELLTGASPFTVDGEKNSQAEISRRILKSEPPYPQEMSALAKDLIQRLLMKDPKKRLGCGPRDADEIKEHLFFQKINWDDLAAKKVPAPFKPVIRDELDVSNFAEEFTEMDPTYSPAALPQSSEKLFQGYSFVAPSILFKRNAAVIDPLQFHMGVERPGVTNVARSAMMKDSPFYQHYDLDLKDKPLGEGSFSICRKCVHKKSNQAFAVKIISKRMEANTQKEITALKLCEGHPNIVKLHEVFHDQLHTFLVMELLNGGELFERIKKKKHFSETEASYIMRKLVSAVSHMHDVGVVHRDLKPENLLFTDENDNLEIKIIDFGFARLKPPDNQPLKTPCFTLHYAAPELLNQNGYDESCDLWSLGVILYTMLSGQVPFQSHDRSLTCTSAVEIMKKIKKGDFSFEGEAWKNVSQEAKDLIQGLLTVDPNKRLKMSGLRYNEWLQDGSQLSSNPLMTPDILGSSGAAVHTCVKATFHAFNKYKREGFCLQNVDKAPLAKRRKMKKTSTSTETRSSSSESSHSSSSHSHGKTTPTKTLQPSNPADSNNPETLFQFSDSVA
Chain of S6K1 (P23443 whole entry, species assumed): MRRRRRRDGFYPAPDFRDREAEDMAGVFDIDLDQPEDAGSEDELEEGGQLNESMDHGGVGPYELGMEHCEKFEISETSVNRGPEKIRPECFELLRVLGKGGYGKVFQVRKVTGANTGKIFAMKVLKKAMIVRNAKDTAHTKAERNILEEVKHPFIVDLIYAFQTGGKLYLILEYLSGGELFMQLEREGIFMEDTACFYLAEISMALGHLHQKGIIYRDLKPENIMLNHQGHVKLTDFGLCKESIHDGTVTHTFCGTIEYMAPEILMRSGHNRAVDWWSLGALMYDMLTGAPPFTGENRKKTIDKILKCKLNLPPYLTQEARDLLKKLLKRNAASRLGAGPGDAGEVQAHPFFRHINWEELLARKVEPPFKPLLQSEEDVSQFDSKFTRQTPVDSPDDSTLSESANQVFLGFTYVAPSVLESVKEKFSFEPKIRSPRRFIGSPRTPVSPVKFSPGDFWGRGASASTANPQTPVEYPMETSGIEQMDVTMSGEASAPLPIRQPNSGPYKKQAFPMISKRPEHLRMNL
Chain of SRPK1 (Q96SB4 whole entry, species assumed): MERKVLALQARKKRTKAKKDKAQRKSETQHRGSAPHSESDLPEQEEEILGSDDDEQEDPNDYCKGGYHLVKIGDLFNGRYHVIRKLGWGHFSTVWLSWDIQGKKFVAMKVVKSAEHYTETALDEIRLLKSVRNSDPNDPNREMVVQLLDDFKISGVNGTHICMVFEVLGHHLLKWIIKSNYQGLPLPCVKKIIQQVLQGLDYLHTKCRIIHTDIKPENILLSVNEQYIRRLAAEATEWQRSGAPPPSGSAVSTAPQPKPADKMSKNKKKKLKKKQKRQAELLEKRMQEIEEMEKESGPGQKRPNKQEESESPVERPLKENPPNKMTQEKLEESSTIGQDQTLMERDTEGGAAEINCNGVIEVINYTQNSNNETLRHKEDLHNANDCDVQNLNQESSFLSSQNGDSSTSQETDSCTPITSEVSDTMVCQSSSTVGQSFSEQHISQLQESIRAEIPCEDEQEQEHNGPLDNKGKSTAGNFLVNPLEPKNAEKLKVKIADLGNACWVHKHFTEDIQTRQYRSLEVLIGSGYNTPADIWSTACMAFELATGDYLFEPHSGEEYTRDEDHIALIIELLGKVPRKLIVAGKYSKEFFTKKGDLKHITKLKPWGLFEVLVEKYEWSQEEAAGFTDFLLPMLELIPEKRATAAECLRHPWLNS

Row | Structure (SMILES) | residual kinase activity, TrkA (TrkA; [1]) | residual kinase activity, TAK1 (TAK1; [1]) | residual kinase activity, MLK3 (MLK3; [1]) | residual kinase activity, ROCK 2 (ROCK 2; [1]) | residual kinase activity, SRPK1 (SRPK1; [1]) | residual kinase activity, S6K1 (S6K1; [1]) | residual kinase activity, MSK1 (MSK1; [1]) | residual kinase activity, PRK2 (PRK2; [1]) | residual kinase activity, HER4 (HER4; [1]) | residual kinase activity, LKB1 (LKB1; [1]) | residual kinase activity, NEK6 (NEK6; [1]) | also measured
1 | O=C(Nc1nc2ccc(F)cc2s1)c1ccccc1 [Compound 03-92] | 74 | 79 | 49 | 95 | 19 | 79 | 81 | 95 | 90 | 100 | 106 | 
2 | CC(=O)Nc1nc2ccc(F)cc2s1 [Compound 03-94] | 58 | 26 | 46 | 70 | 75 | 67 | 88 | 80 | 101 | 46 | 92 | 
3 | COc1ccc2sc(NC(=O)c3ccccc3)nc2c1 [Compound 03-95] | 35 | 45 | 40 | 54 | 42 | 77 | 67 | 84 | 81 | 72 | 86 | 
4 | COc1ccc2nc(NC(=O)c3ccccc3)sc2c1 [Compound 03-98] | 60 | 60 | 20 | 66 | 10 | 76 | 90 | 91 | 73 | 118 | 94 | 
5 | O=C(Nc1nc2ccc(C(F)(F)F)cc2s1)c1ccccc1 [Compound 03-99] | 84 | 95 | 72 | 97 | 61 | 86 | 70 | 85 | 85 | 103 | 94 | 
6 | O=C(Nc1nc2cc(O)ccc2s1)c1ccccc1 [Compound 03-102] | 38 | 31 | 15 | 47 | 10 | 42 | 72 | 68 | 45 | 33 | 112 | 
7 | COC(=O)c1cccc(C(=O)Nc2nc3ccc(C(F)(F)F)cc3s2)c1 [Compound 03-105, Methyl 3-((6-(trifluoromethyl)benzo[d]thiazol-2-yl)carbamoyl)benzoate] |  |  |  |  |  |  |  |  |  |  |  | remaining activity at 100 µM (TrkA; read-out: residual kinase activity, TrkA): 82%; remaining activity at 100 µM (TAK1; read-out: residual kinase activity, TAK1): 76%; remaining activity at 100 µM (MLK3; read-out: residual kinase activity, MLK3): 54%; remaining activity at 100 µM (ROCK 2; read-out: residual kinase activity, ROCK 2): 103%; remaining activity at 100 µM (SRPK1; read-out: residual kinase activity, SRPK1): 54%; remaining activity at 100 µM (S6K1; read-out: residual kinase activity, S6K1): 78%; remaining activity at 100 µM (MSK1; read-out: residual kinase activity, MSK1): 84%; remaining activity at 100 µM (PRK2; read-out: residual kinase activity, PRK2): 109%; remaining activity at 100 µM (HER4; read-out: residual kinase activity, HER4): 122%; remaining activity at 100 µM (LKB1; read-out: residual kinase activity, LKB1): 91%; remaining activity at 100 µM (NEK6; read-out: residual kinase activity, NEK6): 90%
8 | N#Cc1ccc2nc(NC(=O)c3ccccc3)sc2c1 [Compound 03-106] | 66 | 37 | 56 | 125 | 7 | 78 | 64 | 105 | 82 | 107 | 97 | 
9 | COC(=O)c1cccc(C(=O)Nc2nc3cc(OC)ccc3s2)c1 [Compound 03-108] | 85 | 81 | 76 | 52 | 68 | 95 | 88 | 100 | 99 | 90 | 93 | 
10 | COC(=O)c1cccc(C(=O)Nc2nc3ccc(F)cc3s2)c1 [Compound 03-110] | 111 | 68 | 68 | 86 | 55 | 91 | 77 | 85 | 107 | 92 | 87 | 
11 | COc1ccc2sc(NC(=O)c3cccc(C(N)=O)c3)nc2c1 [Compound 03-113] | 87 | 35 | 73 | 68 | 82 | 79 | 65 | 98 | 103 | 95 | 99 | 
12 | COc1ccc2nc(C(=O)Nc3ccccc3)sc2c1 [Compound 13-03] |  |  |  |  |  |  |  |  |  |  |  | residual kinase activity, TrkA (TrkA; [2]): 55; residual kinase activity, TAK1 (TAK1; [2]): 96; residual kinase activity, MLK3 (MLK3; [2]): 89; residual kinase activity, ROCK 2 (ROCK 2; [2]): 70; residual kinase activity, SRPK1 (SRPK1; [2]): 86; residual kinase activity, S6K1 (S6K1; [2]): 90; residual kinase activity, MSK1 (MSK1; [2]): 97; residual kinase activity, PRK2 (PRK2; [2]): 105; residual kinase activity, HER4 (HER4; [2]): 130; residual kinase activity, LKB1 (LKB1; [2]): 110; residual kinase activity, NEK6 (NEK6; [2]): 107
